Reference: ChEMBL document CHEMBL5550091 (2024)
Active and inactive are the calls of the source. The calls are words filed in the database; no cut-off is given here.

How the values were obtained:
[1] = Displacement of BODIPY TMR-X-labeled P11 peptide from recombinant N-terminal deca-His/SUMO tagged RTA (1 to 267 residues) (unknown origin) expressed in Escherichia coli BL21 (DE3) incubated for 30 mins by competition binding based fluorescence polarization assay
[2] = Displacement of BODIPY TMR-X-labeled P11 peptide from recombinant N-terminal deca-His/SUMO tagged RTA (1 to 267 residues) (unknown origin) expressed in Escherichia coli BL21 (DE3) assessed as inhibition constant incubated for 30 mins by competition binding based fluorescence polarization assay
[3] = Inhibition of recombinant N-terminal deca-His/SUMO tagged RTA (1 to 267 residues) (unknown origin) expressed in Escherichia coli BL21 (DE3) mediated ribosome depurination activity assessed as reduction in ribosomal RNA depurination preincubated with compound for 5 mins followed by addition of rat liver ribosomes and measured after 5 mins by qRT-PCR analysis; assay type: subcellular
[4] = Inhibition of recombinant N-terminal deca-His/SUMO tagged RTA (1 to 267 residues) (unknown origin) expressed in Escherichia coli BL21 (DE3) mediated ribosome depurination activity assessed as maximal inhibition of cellular ribosomal RNA depurination preincubated with compound for 5 mins followed by addition of rat liver ribosomes and measured after 5 mins by qRT-PCR analysis relative to control; assay type: subcellular; settings: time 10.0 min
[5] = Inhibition of STX2A1 (unknown origin) mediated ribosomal depurination activity assessed as reduction in ribosomal RNA depurination preincubated with compound for 5 mins followed by addition of rat liver ribosomes and measured after 5 mins by qRT-PCR analysis; assay type: subcellular, Ribosome
cells [6] = assay type: cell-based; settings: A549, 2 h
cells [7] = assay type: cell-based; settings: Vero, 2 h

Compound	IC50 [1]	Ki [2]	IC50 [3]	Imax [4]	other results
NC(=O)c1cccc2c1-c1ccccc1C2=O					Activity [1]: inactive
H-SDDDMGFGLFD-OH	4 µM	1 µM	31 µM		
Cc1cccc(C)c1-c1ccc(C(=O)O)s1	31 µM		45 µM	102%	
O=C(O)c1cc2c(s1)-c1ccccc1CC2				100%	
O=C(O)c1cc2c(s1)-c1ccc(F)cc1CC2	17 µM		32 µM	104%	
CC1(C)Cc2cc(C(=O)O)sc2-c2ccccc21			23 µM	112%	IC50 [5]: 83 µM; EC50 (cells [6]): 92 µM; EC50 (cells [7]): 29 µM
O=C(O)c1ccc(-c2ccccc2)s1	224 µM	58 µM	408 µM		
O=C(O)c1cc2c(s1)-c1cc(Cl)ccc1SC2	59 µM	15 µM			
H-RGWGHPSGYS-OH					Activity [1]: inactive
